The results in this text go back to US11767344B2, “Pharmaceutically acceptable salts of polypeptides and methods of inhibiting the interaction between psd-95 and n-methyl-d-aspartic acid receptor (nmdar)” (BIOCELLS (BEIJING) BIOTECH CO., LTD., priority 2017, dated 2023).

In one series the test system is PC12 cells. The settings on record: 5 μM, 24 hours.
Series [1] addresses T1, PDZ1/2 domain (Homo sapiens, UniProt P78352).
The target of series [2] is T1, PDZ1/2 domain. As to conditions: His beads, SDS-PAGE of eluate, FIG. 1.

“Also recorded” adds a separate entry of the source.

T1 sequence (P78352 61-249 limits assumed): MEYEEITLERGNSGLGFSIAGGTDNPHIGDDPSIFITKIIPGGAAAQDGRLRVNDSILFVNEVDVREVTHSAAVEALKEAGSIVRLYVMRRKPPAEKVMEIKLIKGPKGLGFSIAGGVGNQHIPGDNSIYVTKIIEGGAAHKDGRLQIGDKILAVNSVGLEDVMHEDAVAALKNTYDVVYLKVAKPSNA

Regarding `CC[C@H](C)[C@H](NC(=O)[C@H](CCC(=O)O)NC(=O)[C@@H](NC(=O)[C@H](CC(=O)O)NC(=O)[C@H](CC(C)C)NC(=O)[C@H](CC(C)C)NC(=O)[C@H](CCCCN)NC(=O)[C@H](CCC(=O)O)NC(=O)[C@H](Cc1ccc(O)cc1)NC(=O)[C@H](CCCNC(=N)N)NC(=O)[C@H](CCCNC(=N)N)NC(=O)[C@H](CCCNC(=N)N)NC(=O)[C@H](CCC(N)=O)NC(=O)[C@H](CCCNC(=N)N)NC(=O)[C@H](CCCNC(=N)N)NC(=O)[C@H](CCCCN)NC(=O)[C@H](CCCCN)NC(=O)[C@H](CCCNC(=N)N)NC(=O)CNC(=O)[C@@H](N)Cc1ccc(O)cc1)[C@@H](C)O)C(=O)O` [P5-Ac], the “cytotoxicity (cell viability)” value with PC12 cells is listed as “no significant cytotoxicity”.
Take `CC[C@H](C)[C@H](NC(=O)[C@H](CCC(=O)O)NC(=O)[C@@H](NC(=O)[C@H](CC(=O)O)NC(=O)[C@H](CC(C)C)NC(=O)[C@H](CC(C)C)NC(=O)[C@H](CCCCN)NC(=O)[C@H](CCC(=O)O)NC(=O)[C@H](Cc1ccc(O)cc1)NC(=O)[C@H](CCCNC(=N)N)NC(=O)[C@H](CCCNC(=N)N)NC(=O)[C@H](CCCNC(=N)N)NC(=O)[C@H](CCC(N)=O)NC(=O)[C@H](CCCNC(=N)N)NC(=O)[C@H](CCCNC(=N)N)NC(=O)[C@H](CCCCN)NC(=O)[C@H](CCCCN)NC(=O)[C@H](CCCNC(=N)N)NC(=O)CNC(=O)[C@@H](N)Cc1ccc(O)cc1)[C@@H](C)O)C(=O)O` [P5]: the “interaction with the PDZ1/2 domain as compared with control chimeric peptide NA-1” value at PDZ1/2 domain [1] is on record as “interacted more strongly”. The “binding to PDZ1/2 domain in pull-down assay” value at PDZ1/2 domain [2] was “can bind to the PDZ1/2 domain; also recorded: capable of binding to PDZ1/2 domain”.
